# Laboratory results reported in US5545625A, “Preventing conversion of citrulline to argininosuccinate to limit pathological nitric oxide overproduction” (The Medical College of Wisconsin Research Foundation, Inc., priority 1994, dated 1996).
# Several values for one entry are separate records, joined by “and”; a condition that tells them apart may be missing. Equal values may be shown once.
# What was measured:
# [1] = target: T1, immunostimulant induced argininosuccinate synthetase (Rattus norvegicus, UniProt P09034); assay: Argininosuccinate synthetase assay in crude homogenate of immunostimulant treated rat aortic smooth muscle cells (Example VI); assay type: biochemical; conditions: test compound 1 mM; for counts per minute in the argininosuccinate synthetase assay: duplicate runs, control 534.00 and 443.00, background 217, 237 and 252 not subtracted
# T1 sequence (P09034 1-412): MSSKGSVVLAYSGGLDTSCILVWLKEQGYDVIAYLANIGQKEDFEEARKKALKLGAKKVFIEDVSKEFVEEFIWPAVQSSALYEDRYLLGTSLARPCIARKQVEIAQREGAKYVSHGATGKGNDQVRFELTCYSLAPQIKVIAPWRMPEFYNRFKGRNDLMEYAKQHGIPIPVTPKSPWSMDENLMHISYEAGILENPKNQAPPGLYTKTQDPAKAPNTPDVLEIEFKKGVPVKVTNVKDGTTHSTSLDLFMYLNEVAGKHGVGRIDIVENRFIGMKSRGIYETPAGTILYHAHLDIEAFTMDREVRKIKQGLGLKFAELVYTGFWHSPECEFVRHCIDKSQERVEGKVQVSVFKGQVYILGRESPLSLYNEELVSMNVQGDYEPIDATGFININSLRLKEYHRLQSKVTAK
# Description: Argininosuccinate synthetase activity was assayed based on the conversion of [^14 C]aspartate to [^14 C]argininosuccinate, as described in O'Brien, W. E., Biochemistry 18, 5353-5356, 1979, with the exception that aspartate was present at a concentration of 30 μm (0.021 μCi/nmol). Reaction mixtures also contained L-citrulline (5 mM), Tris (10 mM, pH 7.5), ATP 0.1mM), phosphoenolpyruvate (1.5 mM), pyruvate kinase (4.5 units), myokinase (4 units), and pyrophosphatase (0.2 unit) in a total volume of 0.3 ml. Reactions were allowed to proceed for 90 minutes at 37° C before termination and quantification of the [^14 C]argininosuccinate formed, using ion exchange chromatography on Dowex 1-X8 (200-400 mesh, Bio-Rad).
# Immunostimulant treated rat aortic smooth muscle cells prepared as in Example I were homogenized in 10 volumes (10 ml/gm rat aortic smooth muscle cells) of 100 mM tris buffer containing 1 mM phenylmethylsulfonyl fluoride ([…]) and 1 mM dithiothreitol (to maintain enzyme in reduced form).
# For the control, the crude homogenate was assayed for argininosuccinate synthetase by the procedure as described in Example I except that L-citrulline was present at a concentration of 150 μM instead of 5 mM. In duplicate runs, counts per minute were 534.00 (8.65% error) and 443.00 (9.50% error) counts per minute.
# The background count to be subtracted from the above count results was obtained by omitting citrulline from the argininosuccinate synthetase assay and in three runs was determined to be 217, 237 and 252 counts per minute.
# [2] = system: rat aortic smooth muscle cells; assay: Nitrite production (indicator of cellular NO synthesis) by LPS/interferon-gamma induced rat aortic smooth muscle cells (Examples IV, V); assay type: cell-based; conditions: L-citrulline varied at fixed L-arginine (0 or low), added with immunostimulant; 24 hours; FIG. 5
# Description: Rat aortic smooth muscle cells were grown as described in Example I and were continuously treated with 30 μg/ml of bacterial lipopolysaccharide in combination with 50 ng/ml of interferongamma. Concentrations of mithramycin as indicated in FIG. 4 were added either simultaneously with immunostimulant (filled in circles in FIG. 4) or 4 hours later (open circles in FIG. 4).
# Nitrite was used as an indicator of cellular NO synthesis and assay was carried out as described in Gross, S. S., et al, J. Biol. Chem. 267, 25722-25729 (1992). In the assay, cells were treated with serum- and arginine-free RPMI 1640 medium containing the desired test agents for 24 hours. The accumulation of nitrite in the cell culture medium was quantified colorimetrically after adding 100 μl of Griess reagent (1% sulfanilamide and 0.1% naphthalene diamine in 5% o-phosphoric acid) to an equal volume of sample.
# Rat aortic smooth muscle cells were grown as described in Example I and were treated with 30 μg/ml of bacterial lipopolysaccharide in combination with 50 ng/ml of interferon-gamma. Concentrations of L-citrulline and L-arginine as indicated in FIG. 5 were added simultaneously with immunostimulant. Nitrite was used as an indicator of cellular NO synthesis and assay therefor was carried out as described in Example IV.
# [3] = system: patient with Gram negative septicemia; assay: Blood pressure in septicemia patient given dopamine plus test agent (Examples IX, XV); assay type: in vivo, human; conditions: dopamine 10 μg/kg/min plus L-thiocitrulline 20 mg/kg bolus then 10 mg/kg/hr
# Description: A patient with Gram negative septicemia and blood pressure of 80/55 mm Hg is administered dopamine at 10 μg/kg/min to acutely increase blood pressure and concurrently is administered mithramycin (25 μg/kg) intravenously in 50 ml saline over 3-6 hours.
# A patient with Gram negative septicemia and blood pressure of 80/55 mm Hg is administered dopamine at 10 μg/kg/min to acutely increase blood pressure and concurrently is intravenously administered an initial bolus dose of L-thiocitrulline of 20 mg/kg and thereafter L-thiocitrulline as a sustained infusion at a dose of 10 mg/kg/hr.
# [4] = system: Sprague-Dawley rats; assay: Air pouch inflammatory model with croton oil (Examples XII, XVIII); assay type: in vivo, rat; conditions: L-thiocitrulline 20 mg/kg intraperitoneally, repeated at 6-24 hour intervals; end of 5 days; versus rats without drug
# [5] = system: human treated with interleukin-2; assay: Hypotension during interleukin-2 treatment for renal cell cancer (Examples VIII, XIV); assay type: in vivo; conditions: interleukin-2 1×10^6, 5 days; L-thiocitrulline 10 mg/kg/day from start of infusion
# Description: A human is treated for renal cell cancer with interleukin-2 (1×10^6 units) for 5 days. By the fifth day, the patient's blood pressure falls to 80/55 mm Hg and the patient encounters nausea and extreme discomfort. Three weeks later, the patient returns for a second course of interleukin-2 treatment but is pretreated (before commencing interleukin-2 infusion) with mithramycin (25 μg/kg) and is treated at 24 hour intervals thereafter with 25 μg/kg of mithramycin. The mithramycin is administered intravenously in 50 ml saline over a 3 to 6 hour interval.
# A human is treated for renal cell cancer with interleukin-2 (1×10^6) for 5 days. Simultaneously with commencing interleukin-2 infusion, L-thiocitrulline (10 mg/kg/day) is administered.
# [6] = system: patient with Gram negative septicemia; assay: Blood pressure in septicemia patient given N^G -methyl-L-arginine plus test agent (Examples X, XVI); assay type: in vivo, human; conditions: N^G -methyl-L-arginine 20 mg/kg bolus then 10 mg/kg/hr, plus N^ω -methyl-L-citrulline 40 mg/kg intravenously over 3-6 hours
# Description: A patient with Gram negative septicemia and blood pressure of 80/55 mm Hg is administered N^G -methyl-L-arginine in a bolus dose of 20 mg/kg intravenously in saline and thereafter is given a sustained infusion of N^G -methyl-L-arginine at a dosage of 10 mg/kg/hr. Mithramycin (25 μg/kg) is given intravenously in 50 ml saline over 3-6 hours starting at the time of the bolus dose of N^G -methyl-L-arginine. […] The patient is released after 2 days.
# A patient with a Gram negative septicemia and blood pressure of 80/55 mm Hg is administered N^G -methyl-L-arginine in a bolus dose of 20 mg/kg intravenously in saline and thereafter is given a sustained infusion of N^G -methyl-L-arginine at a dose of 10 mg/kg/hr. N^ω -Methyl-L-citrulline (40 mg/kg) is given intravenously in 50 ml saline over 3-6 hours starting at the time of the bolus dose of N^G -methyl-L-arginine.
compound,measurement,setting,value
N=C(N)NOCC[C@H](N)C(=O)O [L-canavanine],inhibition of immunostimulant induced argininosuccinate synthetase,[1]; L-citrulline 150 μM,are inhibitors of immunostimulant induced argininosuccinate synthetase
same,counts per minute in the argininosuccinate synthetase assay,[1]; L-citrulline 150 μM,355.00 (10.61% error) counts per minute and 393.00 (10.09% error) counts per minute
NC(=O)NCCC[C@H](N)C(=O)O [L-citrulline],nitrite concentration in cell culture medium,[2],maximal nitrite is obtained
CCC[C@H](N)C(=O)O [L-norvaline],inhibition of immunostimulant induced argininosuccinate synthetase,[1]; stated in present tense,inhibition of immunostimulant induced argininosuccinate synthetase is shown
NC(=S)NCCC[C@H](N)C(=O)O [L-thiocitrulline],blood pressure,[3],becomes normal within minutes and this state is sustained
same,inflammation,[4],less inflammation
same,nitrite in the fluid exudate of the lesion,[4],significantly less nitrite
same,inhibition of immunostimulant induced argininosuccinate synthetase,[1]; L-citrulline 150 μM,are inhibitors of immunostimulant induced argininosuccinate synthetase
same,counts per minute in the argininosuccinate synthetase assay,[1]; L-citrulline 150 μM,272.00 (12.13% error) counts per minute and 227.00 (13.27% error) counts per minute
same,development of hypotension,[5],Hypotension does not develop
CNC(=N)NCCC[C@H](N)C(=O)O [N^ω -methyl-L-arginine],counts per minute in the argininosuccinate synthetase assay,[1]; L-citrulline 150 μM,591.00 (8.23% error) counts per minute and 520.00 (8.77% error) counts per minute
CNC(=O)NCCC[C@H](N)C(=O)O [N^ω -methyl-L-citrulline],inhibition of immunostimulant induced argininosuccinate synthetase,[1]; stated in present tense,more potent than obtained with L-canavanine but less potent than obtained with L-thiocitrulline
same,blood pressure,[6],becomes mildly hypotensive or normal within minutes
